This passage reports IC50, Dmax and DC50 results from patent US12528814B2, “Bifunctional degraders of interleukin-1 receptor-associated kinases and therapeutic use thereof” (NURIX THERAPEUTICS, INC., priority 2020, dated 2026).

The target in experiment [1] is T1, IRAK4 (Homo sapiens (Human), UniProt Q9NWZ3). The experiment is described as follows: IRAK4 Biochemical HTRF Kinase Assay. Particulars: Table 5; multiple runs; read-out: IRAK4 HTRF biochemical: IC50. In short, it runs like this:
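IC50 values derive from non-linear regression of sixteen concentrations in duplicate. Kinase reaction ran 90 min at ambient temperature after adding 5 μM STK-S1 substrate, 10 mM ATP and 10 mM MgCl2 (reaction-solution levels, pre-dilution to 10 μl); phospho-peptide detected by HTRF after 60 min.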
(TR-FRET usually uses a lanthanide donor and a delayed reading to cut background.)
Target sequence in this assay (Q9NWZ3 whole entry, species assumed): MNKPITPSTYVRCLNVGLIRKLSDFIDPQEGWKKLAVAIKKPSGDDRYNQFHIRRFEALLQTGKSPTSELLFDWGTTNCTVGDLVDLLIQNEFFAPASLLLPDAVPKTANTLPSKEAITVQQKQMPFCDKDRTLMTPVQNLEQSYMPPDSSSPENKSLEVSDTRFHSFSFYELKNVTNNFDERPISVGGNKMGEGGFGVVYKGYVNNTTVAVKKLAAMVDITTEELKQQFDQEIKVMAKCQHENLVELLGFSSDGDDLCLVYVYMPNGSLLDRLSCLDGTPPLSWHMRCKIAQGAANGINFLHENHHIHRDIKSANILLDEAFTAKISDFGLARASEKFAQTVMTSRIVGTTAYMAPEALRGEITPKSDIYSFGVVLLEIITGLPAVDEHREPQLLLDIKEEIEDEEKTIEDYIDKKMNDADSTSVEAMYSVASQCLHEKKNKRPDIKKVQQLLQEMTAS

Experiment [2] deals with T1, IRAK4. Kind of experiment: IRAK4 Degradation HiBiT Assay. Particulars: multiple runs, HiBiT-tagged Jurkat cells, 4 hrs; for Dmax: Jurkat, read-out: Cellular IRAK4 HiBiT: Dmax, Table 5; for DC50: read-out: Cellular IRAK4 HiBiT: DC50, Table 5. For orientation: With HiBiT, luminescence reflects the tagged protein that the partner subunit can reach.
Target sequence in this assay (Q9NWZ3 whole entry): as the sequence (Q9NWZ3 whole entry, species assumed) above

Consider `CNc1cc(-c2ccc3cc(C#N)cnn23)ncc1-c1nnc([C@H]2CC[C@H](N(C)C(=O)C3CCN(c4ccc5c(c4)C(=O)N(C4CCC(=O)NC4=O)C5=O)CC3)CC2)s1` (stereo partly drawn) [Example 169, N-((1r,4r)-4-(5-(6-(3-cyanopyrrolo[1,2-b]pyridazin-7-yl)-4-(methylamino)pyridin-3-yl)-1,3,4-thiadiazol-2-yl)cyclohexyl)-1-(2-(2,6-dioxopiperidin-3-yl)-1,3-dioxoisoindolin-5-yl)-N-methylpiperidine-4-carboxamide], for which the IC50 (commonly the concentration at which inhibition is half-maximal) on IRAK4 [1] was 0.8 nM. At IRAK4 [2], the Dmax – broadly, the greatest extent of degradation seen – turned out to be 104% and the DC50 (as a rule, the concentration giving 50% degradation) came to 32 nM.
In the case of `CNc1cc(-c2ccc3cc(C#N)cnn23)ncc1-c1nnc([C@H]2CC[C@H](N(C)CC3CCN(c4ccc5c(=O)n(C6CCC(=O)NC6=O)ccc5c4)CC3)CC2)s1` (stereo partly drawn) [Example 170, 7-(5-(5-((1r,4r)-4-(((1-(2-(2,6-dioxopiperidin-3-yl)-1-oxo-1,2-dihydroisoquinolin-6-yl)piperidin-4-yl)methyl)(methyl)amino)cyclohexyl)-1,3,4-thiadiazol-2-yl)-4-(methylamino)pyridin-2-yl)pyrrolo[1,2-b]pyridazine-3-carbonitrile], at IRAK4 [1], the IC50 amounted to 0.5 nM. At IRAK4 [2], the Dmax turned out to be 103% and the DC50 was found to be 29.3 nM.
Regarding `CNc1cc(-c2ccc3cc(C#N)cnn23)ncc1-c1nnc([C@H]2CC[C@H](N(C)C[C@@H]3CCN(c4ccc5c(c4)C(=O)N(C4CCC(=O)NC4=O)C5=O)C3)CC2)s1` (stereo partly drawn) [Example 171, 7-(5-(5-((1S,4r)-4-((((3S)-1-(2-(2,6-dioxopiperidin-3-yl)-1,3-dioxoisoindolin-5-yl)pyrrolidin-3-yl)methyl)(methyl)amino)cyclohexyl)-1,3,4-thiadiazol-2-yl)-4-(methylamino)pyridin-2-yl)pyrrolo[1,2-b]pyridazine-3-carbonitrile], the IC50 on IRAK4 [1] was 0.4 nM. For the same molecule, on IRAK4 [2], the Dmax was found to be 77% and the 50% degradation concentration (DC50) was 12.9 nM.
Take `CNc1cc(-c2ccc3cc(C#N)cnn23)ncc1-c1nnc([C@H]2CC[C@H](NC(=O)CCC(=O)N[C@H](C(=O)N3C[C@H](O)C[C@H]3C(=O)N[C@@H](C)c3ccc(Br)cc3)C(C)(C)C)CC2)s1` [Example 172, N1—((S)-1-((2S,4R)-2-(((S)-1-(4-bromophenyl)ethyl)carbamoyl)-4-hydroxypyrrolidin-1-yl)-3,3-dimethyl-1-oxobutan-2-yl)-N4-((1r,4S)-4-(5-(6-(3-cyanopyrrolo[1,2-b]pyridazin-7-yl)-4-(methylamino)pyridin-3-yl)-1,3,4-thiadiazol-2-yl)cyclohexyl)succinamide]: the IC50 on IRAK4 [1] was determined as 1.5 nM. Besides, on IRAK4 [2], the Dmax was 28% and the DC50 was 2520 nM.
The like results for `CNc1cc(-c2ccc3cc(C#N)cnn23)ncc1-c1nnc([C@H]2CC[C@H](NC(=O)CCC(=O)N[C@H](C(=O)N3C[C@H](O)C[C@H]3C(=O)N[C@@H](C)c3ccccc3)C(C)(C)C)CC2)s1` [Example 173, N1-((1r,4S)-4-(5-(6-(3-cyanopyrrolo[1,2-b]pyridazin-7-yl)-4-(methylamino)pyridin-3-yl)-1,3,4-thiadiazol-2-yl)cyclohexyl)-N4—((S)-1-((2S,4R)-4-hydroxy-2-(((S)-1-phenylethyl)carbamoyl)pyrrolidin-1-yl)-3,3-dimethyl-1-oxobutan-2-yl)succinamide] were, in that order, 0.4 nM, 16% and 612 nM.
The like results for `CNc1cc(-c2ccc3cc(C#N)cnn23)ncc1-c1nnc([C@H]2CC[C@H](N(C)C(=O)CCC(=O)N[C@H](C(=O)N3C[C@H](O)C[C@H]3C(=O)N[C@@H](C)c3ccccc3)C(C)(C)C)CC2)s1` [Example 174, N1-((1r,4S)-4-(5-(6-(3-cyanopyrrolo[1,2-b]pyridazin-7-yl)-4-(methylamino)pyridin-3-yl)-1,3,4-thiadiazol-2-yl)cyclohexyl)-N4—((S)-1-((2S,4R)-4-hydroxy-2-(((S)-1-phenylethyl)carbamoyl)pyrrolidin-1-yl)-3,3-dimethyl-1-oxobutan-2-yl)-N1-methylsuccinamide] were, in that order, 0.6 nM, 34% and 1340 nM.
The like results for `CNc1cc(-c2ccc3cc(C#N)cnn23)ncc1-c1nnc(N2CCN(C(=O)C3CC4(CCN(c5ccc6c(c5)C(=O)N(C5CCC(=O)NC5=O)C6=O)C4)C3)CC2)s1` (stereo not drawn) [Example 175, 7-(5-(5-(4-(6-(2-(2,6-dioxopiperidin-3-yl)-1,3-dioxoisoindolin-5-yl)-6-azaspiro[3.4]octane-2-carbonyl)piperazin-1-yl)-1,3,4-thiadiazol-2-yl)-4-(methylamino)pyridin-2-yl)pyrrolo[1,2-b]pyridazine-3-carbonitrile] were, in that order, 0.5 nM, 91% and 19.1 nM.
Take `CNc1cc(-c2ccc3cc(C#N)cnn23)ncc1-c1nnc(N2CC3(CCN(C(=O)C4CCN(c5ccc6c(c5)C(=O)N(C5CCC(=O)NC5=O)C6=O)CC4)CC3)C2)s1` (stereo not drawn) [Example 176, 7-(5-(5-(7-(1-(2-(2,6-dioxopiperidin-3-yl)-1,3-dioxoisoindolin-5-yl)piperidine-4-carbonyl)-2,7-diazaspiro[3.5]nonan-2-yl)-1,3,4-thiadiazol-2-yl)-4-(methylamino)pyridin-2-yl)pyrrolo[1,2-b]pyridazine-3-carbonitrile]: on IRAK4 [1], the IC50 is 0.5 nM. Besides, at IRAK4 [2], the Dmax was determined as 105% and the DC50 turned out to be 31.5 nM.
The like results for `CNc1cc(-c2ccc3cc(C#N)cnn23)ncc1-c1nnc(N2CC3(CCN(C(=O)CN4CCN(c5ccc6c(c5)C(=O)N(C5CCC(=O)NC5=O)C6=O)CC4)CC3)C2)s1` (stereo not drawn) [Example 177, 7-(5-(5-(7-(2-(4-(2-(2,6-dioxopiperidin-3-yl)-1,3-dioxoisoindolin-5-yl)piperazin-1-yl)acetyl)-2,7-diazaspiro[3.5]nonan-2-yl)-1,3,4-thiadiazol-2-yl)-4-(methylamino)pyridin-2-yl)pyrrolo[1,2-b]pyridazine-3-carbonitrile] were, in that order, 0.5 nM, 105% and 14.8 nM.
With `CNc1cc(-c2ccc3cc(C#N)cnn23)ncc1-c1nnc(N2CC3(CCN(C(=O)C[C@H](NC(=O)[C@@H]4C[C@@H](O)CN4C(=O)[C@@H](NC(=O)C4(F)CC4)C(C)(C)C)c4ccc(-c5scnc5C)cc4)CC3)C2)s1` [Example 178], the IC50 at IRAK4 [1] is 0.7 nM. Further, on IRAK4 [2], the Dmax was 113% and the DC50 came to 42.8 nM.
The like results for `CNc1cc(-c2ccc3cc(C#N)cnn23)ncc1-c1nnc(N2CC3(CCN(C(=O)COc4cc(-c5scnc5C)ccc4CNC(=O)[C@@H]4C[C@@H](O)CN4C(=O)[C@@H](NC(=O)C4(F)CC4)C(C)(C)C)CC3)C2)s1` [Example 179, (2S,4R)—N-(2-(2-(2-(5-(6-(3-cyanopyrrolo[1,2-b]pyridazin-7-yl)-4-(methylamino)pyridin-3-yl)-1,3,4-thiadiazol-2-yl)-2,7-diazaspiro[3.5]nonan-7-yl)-2-oxoethoxy)-4-(4-methylthiazol-5-yl)benzyl)-1-((S)-2-(1-fluorocyclopropane-1-carboxamido)-3,3-dimethylbutanoyl)-4-hydroxypyrrolidine-2-carboxamide] were, in that order, 0.7 nM, 85% and 57 nM.
The like results for `CNc1cc(-c2ccc3cc(C#N)cnn23)ncc1-c1nnc(N2CC3CCC(C2)N3C(=O)C[C@H](NC(=O)[C@@H]2C[C@@H](O)CN2C(=O)[C@@H](NC(=O)C2(F)CC2)C(C)(C)C)c2ccc(-c3scnc3C)cc2)s1` [Example 180, (2S,4R)—N-((1S)-3-(3-(5-(6-(3-cyanopyrrolo[1,2-b]pyridazin-7-yl)-4-(methylamino)pyridin-3-yl)-1,3,4-thiadiazol-2-yl)-3,8-diazabicyclo[3.2.1]octan-8-yl)-1-(4-(4-methylthiazol-5-yl)phenyl)-3-oxopropyl)-1-((S)-2-(1-fluorocyclopropane-1-carboxamido)-3,3-dimethylbutanoyl)-4-hydroxypyrrolidine-2-carboxamide] were, in that order, 0.5 nM, 110% and 91.6 nM.
The like results for `CNc1cc(-c2ccc3cc(C#N)cnn23)ncc1-c1nnc(N2CC3(CCN(C[C@@H]4CCN(c5ccc6c(c5)C(=O)N(C5CCC(=O)NC5=O)C6=O)C4)CC3)C2)s1` (stereo partly drawn) [Example 181, 7-(5-(5-(7-(((3S)-1-(2-(2,6-dioxopiperidin-3-yl)-1,3-dioxoisoindolin-5-yl)pyrrolidin-3-yl)methyl)-2,7-diazaspiro[3.5]nonan-2-yl)-1,3,4-thiadiazol-2-yl)-4-(methylamino)pyridin-2-yl)pyrrolo[1,2-b]pyridazine-3-carbonitrile] were, in that order, 0.6 nM, 41% and 6.94 nM.
As to `CNc1cc(-c2ccc3cc(C#N)cnn23)ncc1-c1nnc(N2CC3(CCN(CC4CCN(c5ccc(C(=O)NC6CCC(=O)NC6=O)cc5)CC4)CC3)C2)s1` (stereo not drawn) [Example 182, 4-(4-((2-(5-(6-(3-cyanopyrrolo[1,2-b]pyridazin-7-yl)-4-(methylamino)pyridin-3-yl)-1,3,4-thiadiazol-2-yl)-2,7-diazaspiro[3.5]nonan-7-yl)methyl)piperidin-1-yl)-N-(2,6-dioxopiperidin-3-yl)benzamide], the 50% inhibitory concentration (IC50) on IRAK4 [1] was determined as 0.5 nM. Also, on IRAK4 [2], the Dmax is 120% and the DC50 turned out to be 159 nM.
